In ChEMBL document CHEMBL4813911 (J Med Chem, 2020):
One block for each compound: values may come before it.

Assays:
[1] = target: T1, Lysine-specific histone demethylase 2 (Homo sapiens, UniProt Q8NB78); assay: Inhibition of LSD2 (unknown origin) using Lys4-dimethylated H3 (1-20) peptide as substrate incubated for 30 mins by peroxidase-coupled assay
T1 sequence (Q8NB78 whole entry): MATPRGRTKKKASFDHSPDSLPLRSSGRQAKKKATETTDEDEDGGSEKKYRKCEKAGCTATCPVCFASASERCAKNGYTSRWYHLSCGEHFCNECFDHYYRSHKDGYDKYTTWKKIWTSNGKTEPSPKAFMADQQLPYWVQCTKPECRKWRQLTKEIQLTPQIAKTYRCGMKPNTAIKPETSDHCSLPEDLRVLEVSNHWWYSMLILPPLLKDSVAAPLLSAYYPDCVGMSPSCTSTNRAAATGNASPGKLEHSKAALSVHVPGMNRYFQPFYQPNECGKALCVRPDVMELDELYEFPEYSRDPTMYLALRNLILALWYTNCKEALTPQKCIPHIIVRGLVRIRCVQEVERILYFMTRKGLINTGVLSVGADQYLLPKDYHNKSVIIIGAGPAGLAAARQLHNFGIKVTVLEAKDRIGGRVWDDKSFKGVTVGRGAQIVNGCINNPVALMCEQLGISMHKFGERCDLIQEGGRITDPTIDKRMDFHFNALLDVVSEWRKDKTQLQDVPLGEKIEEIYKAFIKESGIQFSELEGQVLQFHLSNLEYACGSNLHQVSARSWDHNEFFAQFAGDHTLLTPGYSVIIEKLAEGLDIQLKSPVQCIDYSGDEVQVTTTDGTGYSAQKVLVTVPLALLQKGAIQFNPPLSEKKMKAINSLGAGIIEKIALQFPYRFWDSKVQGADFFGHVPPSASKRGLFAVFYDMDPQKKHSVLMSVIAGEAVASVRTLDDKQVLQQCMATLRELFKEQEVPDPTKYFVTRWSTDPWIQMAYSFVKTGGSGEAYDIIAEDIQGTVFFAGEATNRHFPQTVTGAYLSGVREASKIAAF

[2] = target: T2, Amine oxidase [flavin-containing] A (Homo sapiens, UniProt P21397); assay: Inhibition of human MAO-A expressed in baculovirus infected BTI insect cells using tyramine as substrate incubated for 30 mins by peroxidase-coupled assay
T2 sequence (P21397 whole entry): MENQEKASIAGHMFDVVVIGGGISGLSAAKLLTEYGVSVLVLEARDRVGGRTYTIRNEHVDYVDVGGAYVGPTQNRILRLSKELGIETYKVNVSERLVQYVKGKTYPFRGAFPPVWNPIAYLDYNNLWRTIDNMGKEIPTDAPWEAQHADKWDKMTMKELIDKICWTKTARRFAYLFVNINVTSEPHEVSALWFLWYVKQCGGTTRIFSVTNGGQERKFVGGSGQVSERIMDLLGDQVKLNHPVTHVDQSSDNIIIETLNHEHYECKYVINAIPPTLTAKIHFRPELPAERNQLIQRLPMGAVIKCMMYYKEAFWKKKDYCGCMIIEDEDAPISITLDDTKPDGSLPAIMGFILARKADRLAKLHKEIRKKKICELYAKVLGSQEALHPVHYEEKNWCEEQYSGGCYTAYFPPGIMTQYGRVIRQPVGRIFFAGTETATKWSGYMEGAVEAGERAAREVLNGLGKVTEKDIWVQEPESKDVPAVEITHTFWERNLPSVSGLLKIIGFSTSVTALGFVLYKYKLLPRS

[3] = target: T3, Amine oxidase [flavin-containing] B (Homo sapiens, UniProt P27338); assay: biochemical
T3 sequence (P27338 whole entry): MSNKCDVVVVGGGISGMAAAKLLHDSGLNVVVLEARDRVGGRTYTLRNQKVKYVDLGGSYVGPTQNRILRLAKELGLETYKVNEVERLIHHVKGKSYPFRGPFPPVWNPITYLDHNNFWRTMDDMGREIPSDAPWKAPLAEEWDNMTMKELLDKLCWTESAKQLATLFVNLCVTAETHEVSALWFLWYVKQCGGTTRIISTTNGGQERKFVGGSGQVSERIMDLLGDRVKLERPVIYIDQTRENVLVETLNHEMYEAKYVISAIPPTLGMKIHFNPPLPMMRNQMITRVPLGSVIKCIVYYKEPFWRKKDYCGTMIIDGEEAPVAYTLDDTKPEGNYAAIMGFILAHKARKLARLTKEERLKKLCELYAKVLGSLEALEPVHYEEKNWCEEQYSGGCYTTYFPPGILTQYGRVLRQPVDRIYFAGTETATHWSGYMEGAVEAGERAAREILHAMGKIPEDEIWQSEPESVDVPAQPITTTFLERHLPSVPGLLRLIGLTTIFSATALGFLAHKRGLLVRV

[4] = target: T4, Lysine-specific histone demethylase 1A (Homo sapiens, UniProt O60341); assay: Inhibition of human LSD1 expressed in Escherichia coli BL21 (DE3) cells using (ARTK(diMe)QTARKSTGGKAPRKQLA peptide as substrate incubated for 30 mins by HRP reagent based fluorescence method
[5] = target: T2, Amine oxidase [flavin-containing] A; assay: Inhibition of MAO-A (unknown origin) preincubated for 20 mins using 5-hydroxytryptamine as substrate followed by substrate addition and measured after 60 mins
[6] = target: T3, Amine oxidase [flavin-containing] B; assay: Inhibition of MAO-B (unknown origin) using benzylamine as substrate preincubated for 20 mins followed by substrate addition and measured after 60 mins
[7] = system: MV4-11; assay: Antiproliferative activity against human MV4-11 cells incubated for 6 days by MTS assay; format: functional, cell-based; details: MV4-11, 144 h
[8] = target: T3, Amine oxidase [flavin-containing] B; assay: Inhibition of MAO-B (unknown origin) measured after 60 mins by luciferin-based luminescence assay
[9] = target: T4, Lysine-specific histone demethylase 1A
[10] = target: T4, Lysine-specific histone demethylase 1A; remark: listed apart in the source
[11] = target: T4, Lysine-specific histone demethylase 1A; remark: listed apart in the source
[12] = target: T2, Amine oxidase [flavin-containing] A
[13] = target: T2, Amine oxidase [flavin-containing] A; assay: Inhibition of human MAO-A expressed in baculovirus infected BTI insect cells preincubated for 10 mins followed by substrate addition and measured after 60 mins by luciferin-based luminescence assay
[14] = target: T3, Amine oxidase [flavin-containing] B; assay: Inhibition of human MAO-B expressed in baculovirus infected BTI insect cells preincubated for 10 mins followed by substrate addition and measured after 60 mins by luciferin-based luminescence assay
[15] = target: T4, Lysine-specific histone demethylase 1A; assay: Inhibition of human LSD1 (172 to 833 residues) using Lys4-dimethylated H3 (1-20) peptide as substrate incubated for 30 mins by peroxidase-coupled assay
[16] = system: HeLa; assay: Antiproliferative activity against human HeLa cells after 48 hrs by MTT assay; format: functional
[17] = system: HCT-116; assay: Antiproliferative activity against human HCT116 cells after 48 hrs by MTT assay; format: functional
[18] = system: PC-3; assay: Antiproliferative activity against human PC-3 cells after 48 hrs by MTT assay; format: functional
[19] = system: KYSE-150 cell line; assay: Antiproliferative activity against human KYSE150 cells after 48 hrs by MTT assay; format: functional
[20] = system: SH-SY5Y; assay: Antiproliferative activity against human SH-SY5Y cells after 48 hrs by MTT assay; format: functional
[21] = target: T2, Amine oxidase [flavin-containing] A; assay: biochemical
[22] = target: T3, Amine oxidase [flavin-containing] B; assay: biochemical; remark: listed apart in the source
[23] = target: T2, Amine oxidase [flavin-containing] A; assay: Inhibition of human MAO-A expressed in expressed in baculovirus infected BTI insect cells using tyramine as substrate by peroxidase-coupled method
[24] = target: T3, Amine oxidase [flavin-containing] B; assay: biochemical; remark: listed apart in the source
[25] = target: T4, Lysine-specific histone demethylase 1A; assay: Inhibition of His-tagged full length human LSD1 expressed in Escherichia coli BL21 RIPL Codon Plus (DE3) using ARTK(me2)QTARKSTGGKAPRKQLA as substrate preincubated for 10 mins followed by substrate addition by amplex ultra red and HRP reagent based fluorescence method
[26] = system: Kasumi 1; assay: Antiproliferative activity against human KASUMI-1 cells incubated for 72 hrs by CellTiter-glo assay; format: functional, cell-based; details: Kasumi 1, 72 h
[27] = system: U-937; assay: Antiproliferative activity against human U-937 cells incubated for 72 hrs by CellTiter-glo assay; format: functional, cell-based; details: U-937, 72 h
[28] = system: HL-60; assay: Antiproliferative activity against human HL-60 cells incubated for 72 hrs by CellTiter-glo assay; format: functional, cell-based; details: HL-60, 72 h
[29] = system: OCI-AML-3; assay: Antiproliferative activity against human OCI-AML3 cells incubated for 72 hrs by CellTiter-glo assay; format: functional, cell-based; details: OCI-AML-3, 72 h
[30] = system: THP-1; assay: Antiproliferative activity against human THP-1 cells incubated for 72 hrs by CellTiter-glo assay; format: functional, cell-based; details: THP-1, 72 h
[31] = system: MV4-11; assay: Antiproliferative activity against human MV4-11 cells incubated for 72 hrs by CellTiter-glo assay; format: functional, cell-based; details: MV4-11, 72 h
[32] = target: T5, MAO-A (Homo sapiens, UniProt P21397); assay: Inhibition of human recombinant MAO-A expressed in Pichia pastoris using kynuramine as substrate at 100 uM by horseradish peroxidase coupled-assay relative to control; details: probe kynuramine
T5 sequence (P21397 whole entry): T2 sequence (P21397 whole entry)

[33] = target: T6, MAO-B (Homo sapiens, UniProt P27338); assay: Inhibition of human recombinant MAO-B expressed in Pichia pastoris using benzylamine as substrate at 100 uM by horseradish peroxidase coupled-assay relative to control; details: probe benzylamine
T6 sequence (P27338 whole entry): T3 sequence (P27338 whole entry)

[34] = system: MV4-11; assay: Antiproliferative activity against human MV4-11 cells incubated for 48 hrs by CellTiter-Fluor cell viability assay; format: functional, cell-based; details: MV4-11, 48 h
[35] = system: NB-4; assay: Antiproliferative activity against human NB4 cells incubated for 48 hrs by CellTiter-Fluor cell viability assay; format: functional, cell-based; details: NB-4, 48 h

Ki [1]: > 250 µM
Ki [2]: > 250 µM
Ki [3]: > 250 µM
SMILES: CN1CCN(C(=O)CNC2CC2c2cc(F)cc(F)c2OCc2ccccc2)CC1 (stereo not drawn)

SMILES: CCN(CC)S(=O)(=O)c1ccc([C@H]2C[C@@H]2NC(=O)OC(C)(C)C)cc1
IC50 [4]: > 1 µM
IC50 [5]: 0.708 µM
IC50 [6]: 0.655 µM
IC50 [7]: 4.9 µM

IC50 [8]: 10.8 µM
IC50 [9]: 0.031 µM
IC50 [10]: 0.003 µM
IC50 [11]: 0.007 µM
IC50 [12]: 12.9 µM
SMILES: CN1CCN(C(=O)CN[C@@H]2C[C@H]2c2ccc(F)nc2)CC1

IC50 [13]: > 100 µM
IC50 [14]: > 100 µM
SMILES: Cn1cc(C(=O)Nc2ccc([C@@H]3C[C@H]3NCC3CC3)cc2)cn1

Ki [15]: 0.56 µM
Ki [1]: > 250 µM
Ki [2]: > 250 µM
Ki [3]: > 250 µM
SMILES: N[C@H]1CCN(C(=O)CNC2CC2c2cc(F)cc(F)c2OCc2ccccc2)C1 (stereo partly drawn)

GI50 [16]: 6 µM
GI50 [17]: 6 µM
GI50 [18]: 6 µM
GI50 [20]: 6 µM
IC50 [21]: 290 µM
IC50 [22]: > 1000 µM
SMILES: NC1CC1c1ccc(OCC[C@H](NC(=O)c2ccccc2)C(=O)NCc2ccccc2)cc1 (stereo partly drawn)
GI50 [19]: 6 µM

SMILES: NC1CC1c1cccc(F)c1OCc1ccccc1 (stereo not drawn)
Ki [23]: 64 µM
Ki [24]: 42 µM

SMILES: CCN(CC)S(=O)(=O)c1ccc([C@H]2C[C@@H]2N)cc1
IC50 [4]: 0.123 µM
IC50 [5]: 0.806 µM
IC50 [6]: 0.898 µM
IC50 [7]: > 30 µM

IC50 [12]: 0.51 µM
SMILES: CN1CCN(C(=O)CN[C@@H]2C[C@H]2c2ccc(OCc3ccccc3)cc2)CC1

IC50 [27]: 1.6 µM
IC50 [28]: 1.7 µM
IC50 [29]: 1.8 µM
IC50 [30]: 0.1 µM
IC50 [31]: 0.18 µM
SMILES: N[C@@H]1C[C@H]1c1ccc(C(=O)NCc2ccccc2)cc1
IC50 [25]: 0.3 µM
IC50 [26]: 0.03 µM

inhibition at 100 µM [32]: 37%
inhibition at 100 µM [33]: 8%
IC50 [34]: 0.4 µM
SMILES: NC1CC1c1ccc(NC(=O)c2ccc(NC(=O)OCc3ccccc3)cc2)cc1 (stereo not drawn)
IC50 [35]: 0.6 µM
